# Data reported in patent US20110152092A1, “Herbicidal compositions comprising flufenacet” (Bayer CropScience AG, priority 2009, published 2011).
# How the values were obtained:
# HORVS [1] = test: Greenhouse trial, PO application, selective post-emergence action on crop (test method 4); assay type: in vivo, Hordeum vulgare, summer barley; conditions: g of AS/ha: (A) 120, (B) 1200, (C) 120, mixture 120 + 1200 + 120
# Method: (§1) In the standard design of the test, seeds of various broad-leaved weed and weed grass biotypes (origins) were sown in a 8-13 cm diameter pot filled with natural soil of a standard field soil (loamy silt; non-sterile) and covered with a covering soil layer of about 1 cm. The pots were then cultivated in a greenhouse (12-16 h of light, temperature day 20-22° C., night 15-18° C.) until the time of application. The pots were treated on a laboratory track sprayer with spray liquors comprising the compositions according to the invention, mixtures of the prior art or components used individually. Application of the active compounds or active compound combinations formulated as WG, WP, EC or otherwise was carried out at the appropriate growth stages of the plants. The application rate for the spray application was 100-600 l of water/ha. After the treatment, the plants were returned to the greenhouses.
# (§2) About 3 weeks after the application, the soil action or/and foliar action was assessed visually according to a scale of 0-100% in comparison to an untreated comparative group: 0%=no noticeable effect compared to the untreated comparative group; 100%=full effect compared to the untreated comparative group. […]
# HORVS [2] = test: Greenhouse trial, PE application, selective pre-emergence action on crop (test method 3); assay type: in vivo, Hordeum vulgare, summer barley; conditions: g of AS/ha: (A) 90, (B) 1200, (C) 90, mixture 90 + 1200
# Method: as §1, §2
# AVEFA = test: Greenhouse trial, pre-sowing application 7 days prior to sowing (test method 5); assay type: in vivo, Avena fatua; conditions: g of AS/ha: (A) 90, (B) 1200, (C) 90, mixture 90 + 1200
# Method: as §1, §2
# HORVS [3] = test: as above; assay type: in vivo, Hordeum vulgare, summer barley; conditions: g of AS/ha: (A) 90, (B) 1200, (C) 90, mixture 90 + 1200
# Method: as §1, §2
# TRZAS = test: Greenhouse trial, PE application with different irrigation variations (test method 6); assay type: in vivo, Triticum aestivum, summer wheat; conditions: g of AS/ha: (A) 120, (B) 1200, (C) 90, mixture 120 + 1200 + 90
# Method: as §1
# (§3) About 3 weeks after the application, the soil action or/and foliar action was assessed visually according to a scale of 0-100% in comparison to an untreated comparative group: 0%=no noticeable effect compared to the untreated comparative group; 100%=full effect compared to the untreated comparative group.
# (§4) (notes: the term “seeds” also includes vegetative propagation forms such as, for example, rhizome pieces; abbreviations used: h light=hours of illumination, g of AS/ha=gram of active substance per hectare, l/ha=liter per hectare, S=sensitive, R=resistant) • 1. Pre-emergence action against weeds: seeds of various broad-leaved weed and weed grass biotypes (origins) were sown in a 8-13 cm diameter pot filled with natural soil of a standard field soil (loamy silt; non-sterile) and covered with a covering soil layer of about 1 cm. The pots were then cultivated in a greenhouse (12-16 h of light, temperature day 20-22° C., night 15-18° C.) until the time of application. The pots were treated at the BBCH stage 00-10 of the seeds/plants on a laboratory track sprayer with spray liquors comprising the compositions according to the invention, mixtures or components used individually, as WG, WP, EC or other formulations. The application rate for the spray application was 100-600 l of water/ha. After the treatment, the plants were returned to the greenhouses and, when required, treated with fertilizer and watered. • 2. Post-emergence action against weeds: seeds of various broad-leaved weed and weed grass biotypes (origins) were sown in a 8-13 cm diameter pot filled with natural soil of a standard field soil (loamy silt; non-sterile) and covered with a covering soil layer of about 1 cm. The pots were then cultivated in a greenhouse (12-16 h of light, temperature day 20-22° C., night 15-18° C.) until the time of application. […]
# STEME = test: Greenhouse trial, activity with different soil types; assay type: in vivo, Stellaria media; conditions: IU/EC73 soil versus IU soil; g of AS/ha: (A) 120, (B) 1200, (C) 90, mixture 120 + 1200 + 90
# Method: as §1, §3
# (§5) (notes: the term “seeds” also includes vegetative propagation forms such as, for example, rhizome pieces; abbreviations used: h light=hours of illumination, g of AS/ha=gram of active substance per hectare, l/ha=liter per hectare, S=sensitive, R=resistant) • 1. Pre-emergence action against weeds: seeds of various broad-leaved weed and weed grass biotypes (origins) were sown in a 8-13 cm diameter pot filled with natural soil of a standard field soil (loamy silt; non-sterile) and covered with a covering soil layer of about 1 cm. The pots were then cultivated in a greenhouse (12-16 h of light, temperature day 20-22° C., night 15-18° C.) until the time of application. The pots were treated at the BBCH stage 00-10 of the seeds/plants on a laboratory track sprayer with spray liquors comprising the compositions according to the invention, mixtures or components used individually, as WG, WP, EC or other formulations. The application rate for the spray application was 100-600 l of water/ha. After the treatment, the plants were returned to the greenhouses and, when required, treated with fertilizer and watered. • 2. Post-emergence action against weeds: seeds of various broad-leaved weed and weed grass biotypes (origins) were sown in a 8-13 cm diameter pot filled with natural soil of a standard field soil (loamy silt; non-sterile) and covered with a covering soil layer of about 1 cm. The pots were then cultivated in a greenhouse (12-16 h of light, temperature day 20-22° C., night 15-18° C.) until the time of application. The pots were treated at various BBCH stages between 11-25 of the seeds/plants, i.e. generally between two to three weeks after the start of the cultivation, on a laboratory track sprayer with spray liquors comprising the compositions according to the invention, mixtures or components used individually, as WG, WP, EC or other formulations. The application rate for the spray application was 100-600 l of water/ha. After the treatment, the plants were returned to the greenhouses and, when required, treated with fertilizer and watered. • 3. Selective pre-emergence action: seeds of various crop species (origins) were sown in a 8-13 cm diameter pot filled with natural soil of a standard field soil (loamy silt; non-sterile) and covered with a covering soil layer of about 1 cm. The pots were then cultivated in a greenhouse (12-16 h of light, temperature day 20-22° C., night 15-18° C.) until the time of application. The pots were treated at the BBCH stage 00-10 of the seeds/plants on a laboratory track sprayer with spray liquors comprising the compositions according to the invention, mixtures or components used individually, as WG, WP, EC or other formulations. The application rate for the spray application was 100-600 l of water/ha. […]
# HORVS [4] = test: as above; assay type: in vivo, Hordeum vulgare, summer barley; conditions: g of AS/ha: (A) 120, (B) 1200, (C) 90, mixture 120 + 1200 + 90
# Method: as §1, §3
# (notes: the term “seeds” also includes vegetative propagation forms such as, for example, rhizome pieces; abbreviations used: h light=hours of illumination, g of AS/ha=gram of active substance per hectare, l/ha=liter per hectare, S=sensitive, R=resistant) • 1. Pre-emergence action against weeds: seeds of various broad-leaved weed and weed grass biotypes (origins) were sown in a 8-13 cm diameter pot filled with natural soil of a standard field soil (loamy silt; non-sterile) and covered with a covering soil layer of about 1 cm. The pots were then cultivated in a greenhouse (12-16 h of light, temperature day 20-22° C., night 15-18° C.) until the time of application. The pots were treated at the BBCH stage 00-10 of the seeds/plants on a laboratory track sprayer with spray liquors comprising the compositions according to the invention, mixtures or components used individually, as WG, WP, EC or other formulations. The application rate for the spray application was 100-600 l of water/ha. After the treatment, the plants were returned to the greenhouses and, when required, treated with fertilizer and watered. • 2. Post-emergence action against weeds: seeds of various broad-leaved weed and weed grass biotypes (origins) were sown in a 8-13 cm diameter pot filled with natural soil of a standard field soil (loamy silt; non-sterile) and covered with a covering soil layer of about 1 cm. The pots were then cultivated in a greenhouse (12-16 h of light, temperature day 20-22° C., night 15-18° C.) until the time of application. The pots were treated at various BBCH stages between 11-25 of the seeds/plants, i.e. generally between two to three weeks after the start of the cultivation, on a laboratory track sprayer with spray liquors comprising the compositions according to the invention, mixtures or components used individually, as WG, WP, EC or other formulations. The application rate for the spray application was 100-600 l of water/ha. After the treatment, the plants were returned to the greenhouses and, when required, treated with fertilizer and watered. • 3. […]
# ALOMY = test: Greenhouse trial, PE application on sensitive and resistant biotypes (test method 8); assay type: in vivo, Alopecurus myosuroides; conditions: g of AS/ha: (A) 90, (B) 1200, (C) 90, mixture 90 + 1200 + 90, iodosulfuron 10; for activity ALOMY resistant (visual, scale 0-100%): resistant biotype; for activity ALOMY sensitive (visual, scale 0-100%): sensitive biotype
# Method: as §1, §3, §5
# TRZAW = test: Greenhouse trial, PE application at different sowing depths (test method 9); assay type: in vivo, Triticum aestivum, winter wheat; conditions: g of AS/ha: (A) 120, (B) 1200, (C) 90, mixture 90 + 1200 + 90
# Method: as §1, §3, §4
smiles,measurement,setting,value
"O=C(Nc1ccc(F)cc1F)c1cccnc1Oc1cccc(C(F)(F)F)c1 [(C) diflufenican, N-(2,4-difluorophenyl)-2-[3-(trifluoromethyl)phenoxy]-3-pyridinecarboxamide]","activity on crop plant HORVS (visual, scale 0-100%)",HORVS [1],5%
same,"activity on crop plant HORVS (visual, scale 0-100%)",HORVS [2],5%
same,"activity AVEFA (visual, scale 0-100%)",AVEFA,0%
same,"activity on crop plant HORVS (visual, scale 0-100%)",HORVS [3],30%
same,"activity on crop plant TRZAS (visual, scale 0-100%)",TRZAS; irrigation from above,10%
same,"activity on crop plant TRZAS (visual, scale 0-100%)",TRZAS; irrigation from below,0%
same,"Difference of the soil types, STEME",STEME,−57%
same,"activity on crop plant HORVS IU soil (visual, scale 0-100%)",HORVS [4]; IU soil,0%
same,"activity on crop plant HORVS IU/EC73 soil (visual, scale 0-100%)",HORVS [4]; IU/EC73 soil,0%
same,"activity ALOMY resistant (visual, scale 0-100%)",ALOMY,30%
same,"activity ALOMY sensitive (visual, scale 0-100%)",ALOMY,30%
same,"activity on crop plant TRZAW 5 mm (visual, scale 0-100%)",TRZAW; sowing depth 5 mm,20%
same,"activity on crop plant TRZAW 20 mm (visual, scale 0-100%)",TRZAW; sowing depth 20 mm,20%
"COc1nc(C)nc(NC(=O)NS(=O)(=O)c2cc(I)ccc2C(=O)O)n1 [C)^1 iodosulfuron, iodosulfuron]","activity ALOMY resistant (visual, scale 0-100%)",ALOMY,50%
same,"activity ALOMY sensitive (visual, scale 0-100%)",ALOMY,98%
